These results are taken from ChEMBL document CHEMBL6103539, “A critical analysis of design, binding pattern and SAR of benzo-fused heteronuclear compounds as VEGFR-2 inhibitors” (Bioorg Med Chem, 2024).

Structures are written as SMILES.

In one data set the test system is HeLa. Description: Antiproliferative activity against human HeLa cells assessed as reduction in cell growth incubated for 48 hrs by MTT assay. In kind it is toxicity, cell-based.
The nature of data set [1]: Antiproliferative activity against human HUVEC cells assessed as reduction in cell growth incubated for 48 hrs by MTT assay. It counts as toxicity, cell-based.
Another data set has as its system NCI-H1975. Kind of data set: Antiproliferative activity against human NCI-H1975 cells assessed as reduction in cell growth incubated for 48 hrs by MTT assay. The conditions noted are these: NCI-H1975, 48 h. It counts as toxicity, cell-based.
The test system of a further data set is A549. Description: Antiproliferative activity against human A549 cells assessed as reduction in cell growth incubated for 48 hrs by MTT assay. In kind it is toxicity, cell-based. Particulars: A549, 48 h. A general note: Tetrazolium dyes change colour on reduction, which living cells bring about.
The target of data set [2] is T1, Vascular endothelial growth factor receptor 2 (Homo sapiens, UniProt P35968). Kind of data set: Inhibition of VEGFR-2 (unknown origin) at 1 uM using Poly(4:1 Glu, Tyr) as substrate by Kinase-Glo Max reagent based luminescence analysis relative to control. A general note: In Kinase-Glo more light means more ATP remaining.
T1 sequence (P35968 whole entry): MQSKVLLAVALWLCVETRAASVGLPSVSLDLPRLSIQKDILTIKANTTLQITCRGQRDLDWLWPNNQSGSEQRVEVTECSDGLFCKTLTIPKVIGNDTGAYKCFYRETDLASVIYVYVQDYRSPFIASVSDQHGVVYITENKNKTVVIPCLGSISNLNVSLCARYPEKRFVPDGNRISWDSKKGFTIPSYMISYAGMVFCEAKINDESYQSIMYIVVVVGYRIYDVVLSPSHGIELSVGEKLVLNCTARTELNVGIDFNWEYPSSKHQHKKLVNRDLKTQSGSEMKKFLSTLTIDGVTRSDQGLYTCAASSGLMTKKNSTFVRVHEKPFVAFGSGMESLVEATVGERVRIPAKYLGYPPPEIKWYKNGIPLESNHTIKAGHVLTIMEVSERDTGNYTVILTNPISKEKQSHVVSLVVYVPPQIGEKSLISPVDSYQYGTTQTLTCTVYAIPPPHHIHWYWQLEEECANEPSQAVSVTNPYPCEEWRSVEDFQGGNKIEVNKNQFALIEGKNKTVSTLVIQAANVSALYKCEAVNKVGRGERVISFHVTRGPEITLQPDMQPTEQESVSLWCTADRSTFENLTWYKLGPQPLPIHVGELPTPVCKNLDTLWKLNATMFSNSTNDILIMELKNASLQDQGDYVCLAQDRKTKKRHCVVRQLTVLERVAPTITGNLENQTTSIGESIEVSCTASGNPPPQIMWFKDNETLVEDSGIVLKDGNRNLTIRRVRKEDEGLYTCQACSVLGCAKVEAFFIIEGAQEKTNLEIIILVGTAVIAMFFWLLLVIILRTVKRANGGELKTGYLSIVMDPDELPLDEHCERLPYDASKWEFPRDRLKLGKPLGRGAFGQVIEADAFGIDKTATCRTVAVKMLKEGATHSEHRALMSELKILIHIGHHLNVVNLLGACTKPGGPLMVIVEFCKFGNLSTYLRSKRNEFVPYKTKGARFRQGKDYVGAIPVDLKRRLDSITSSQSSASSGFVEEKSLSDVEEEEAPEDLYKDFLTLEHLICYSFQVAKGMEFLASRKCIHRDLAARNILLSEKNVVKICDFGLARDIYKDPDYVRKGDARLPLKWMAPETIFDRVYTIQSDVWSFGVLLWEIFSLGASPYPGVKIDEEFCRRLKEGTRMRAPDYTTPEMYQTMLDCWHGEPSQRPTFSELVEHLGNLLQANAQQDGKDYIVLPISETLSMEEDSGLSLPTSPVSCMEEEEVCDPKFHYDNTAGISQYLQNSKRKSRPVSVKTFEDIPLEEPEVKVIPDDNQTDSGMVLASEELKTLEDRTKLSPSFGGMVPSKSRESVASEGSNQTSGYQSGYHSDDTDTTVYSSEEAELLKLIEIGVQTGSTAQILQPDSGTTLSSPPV
A further data set relates to DU-145. Kind of data set: Antiproliferative activity against human DU-145 cells. In kind it is functional, cell-based.
In data set [3] the test system is MCF7. Kind of data set: Antiproliferative activity against human MCF7 cells. It counts as functional, cell-based.
The subject of another data set is HepG2. Kind of data set: cells. Particulars: Homo sapiens, HepG2, 72 h.
The subject of another data set is HCT-116. Kind of data set: cells. The conditions noted are these: Homo sapiens, HCT-116, 72 h.
In data set [4] the target is T1, Vascular endothelial growth factor receptor 2. Description: Inhibition of VEGFR2 (unknown origin) using poly (Glu,Tyr) 4:1 as substrate measured after 1 hr in presence of ATP by ELISA method. Background: In an ELISA, binding on a coated surface is turned into a signal by an enzyme label.
Data set [5] relates to MCF7. Description: cells. Particulars: Homo sapiens, MCF7, 72 h.
Description: Cytotoxicity against human MCF7 cells assessed as reduction in cell viability incubated for 72 hrs by MTT assay

Description for HCT-116: Cytotoxicity against human HCT-116 cells assessed as reduction in cell viability incubated for 72 hrs by MTT assay
Description for HepG2: Cytotoxicity against human HepG2 cells assessed as reduction in cell viability incubated for 72 hrs by MTT assay

The term IC50 denotes the midpoint of a concentration-inhibition curve. The inhibition is the drop in the measured response relative to a control, in per cent. Take `O=C(Nc1ccc(OC(F)(F)F)cc1)Nc1ccc2oc(-c3ccccc3Cl)nc2c1`: the results for the IC50 with HeLa, in the data set on NCI-H1975 and in the data set on A549 were 0.28 µM, 1.4 µM and 7.61 µM, respectively. Moreover, the IC50 at 48 h in [1] was 8.46 µM. This compound registered an inhibition in [2] of 98.6%.
As for `COc1nc(C(=O)Nc2nc3cc(F)ccc3[nH]2)ccc1-n1cnc(C)c1`, the IC50 in the data set with DU-145 is 9.2 µM; in the data set with MCF7 [3] it was 8.9 µM.
Regarding `O=C(CCSc1nc2ccccc2o1)Nc1ccc(S(=O)(=O)NC(=O)NC2CCCCC2)cc1`, the IC50 is 5.93 µM in the data set on HepG2, 7.14 µM with HCT-116, 0.08 µM in data set [4] and 8.93 µM in the data set on MCF7 [5].
